Experimental data reported in publication PMC6079014, “Calcium is an essential cofactor for metal efflux by the ferroportin transporter family” (Nature Communications, 2018).
pEC50: −log10 of the molar value.

Biological target: T1, human Fpn Q99A (Homo sapiens, UniProt Q9NP59, Q99A)
T1 construct: expressed in transfected cells; host or cells: Xenopus laevis oocytes injected with mutant Fpn RNA (pOX(+) vector)
T1 sequence (Q9NP59 1-571 Q99A): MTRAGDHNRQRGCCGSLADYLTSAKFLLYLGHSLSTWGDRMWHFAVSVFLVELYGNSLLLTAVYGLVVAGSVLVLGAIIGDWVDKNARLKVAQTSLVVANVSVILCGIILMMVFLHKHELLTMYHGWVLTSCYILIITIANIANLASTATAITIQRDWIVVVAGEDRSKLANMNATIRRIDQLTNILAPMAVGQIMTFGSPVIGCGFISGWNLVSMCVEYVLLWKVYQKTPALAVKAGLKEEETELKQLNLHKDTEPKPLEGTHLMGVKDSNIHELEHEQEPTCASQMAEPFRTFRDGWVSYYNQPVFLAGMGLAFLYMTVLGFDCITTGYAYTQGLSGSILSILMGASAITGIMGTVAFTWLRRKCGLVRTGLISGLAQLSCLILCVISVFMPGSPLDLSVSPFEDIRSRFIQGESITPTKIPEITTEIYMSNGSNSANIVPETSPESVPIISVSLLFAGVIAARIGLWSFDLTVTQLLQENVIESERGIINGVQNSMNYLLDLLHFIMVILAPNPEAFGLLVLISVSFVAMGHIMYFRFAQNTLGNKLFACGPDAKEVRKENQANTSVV
Assay: 55Fe efflux assay in Xenopus oocytes expressing Q99A mutant human Fpn
Assay type: cell-based
Conditions: fit by Eq. (2), ± SEM, read-out: K0.5Ca, half-maximal extracellular Ca2+ concentration for stimulation of 55Fe efflux
Procedure: We performed laparotomy and ovariectomy on adult female Xenopus laevis frogs (Nasco, Fort Atkinson, WI) under 2-aminoethylbenzoate methanesulfonate anesthesia (0.2%, by immersion, to effect) following a protocol approved by the University of Cincinnati Institutional Animal Care and Use Committee. Ovarian tissue was isolated and treated for 3 h with […] collagenase A (Roche Diagnostics Corp., Indianapolis, IN) in calcium-free-modified Barths’ medium (MBM) of composition 88 mM NaCl, 1 mM KCl, 2.4 mM NaHCO3, 1.57 mM MgSO4, 0.66 mM NaNO3, 10 mM 4-(2-hydroxyethyl)-1-piperazineethanesulfonic acid (HEPES), buffered to pH 7.5 by using 2-amino-2-hydroxymethyl-propane-1,3-diol (Tris base). […]
We measured metal efflux from oocytes expressing Fpn by using a radiotracer assay. […]
To initiate the efflux assay, we placed oocytes in standard efflux medium of composition 100 mM NaCl, 1 mM KCl, 2 mM CaCl2, 1 mM MgCl2, 0.5 mM bathophenanthroline disulfonic acid (BPS), 1 mM nitrilotriacetic acid (NTA) trisodium salt, 50 μg/ml apotransferrin (ApoTf) (R&D Systems Inc., Minneapolis, MN), buffered with 0–5 mM MES, and 0–5 mM N′,N′-diethylpiperazine to obtain pH 7.5, with the following exceptions. […] The corresponding oocytes were rinsed twice in ice-cold medium (without BPS), solubilized with 5% (w/v) sodium dodecyl sulfate, and counted (Nt). […]

Compound: [Ca+2] [Ca^2+, calcium]
- pEC50: 2.62
